US20130303535A1, “NOVEL BICYCLIC HETEROCYCLIC COMPOUND” (priority 2008, published 2013)
Structures can show the parent of a compound that is named as a salt.

Biological target: TTX resistant Na channel of human SNS-expressing cell (SNS) (Homo sapiens, UniProt Q9Y5Y9)
Test: cell-based
Settings: for inhibition at 12.5 µM: CHO-K1, compound concentration 12.5 μM, read-out: SNS inhibitory rate (%)

Chain of TTX resistant Na channel of human SNS-expressing cell (SNS) (Q9Y5Y9 whole entry, looked up): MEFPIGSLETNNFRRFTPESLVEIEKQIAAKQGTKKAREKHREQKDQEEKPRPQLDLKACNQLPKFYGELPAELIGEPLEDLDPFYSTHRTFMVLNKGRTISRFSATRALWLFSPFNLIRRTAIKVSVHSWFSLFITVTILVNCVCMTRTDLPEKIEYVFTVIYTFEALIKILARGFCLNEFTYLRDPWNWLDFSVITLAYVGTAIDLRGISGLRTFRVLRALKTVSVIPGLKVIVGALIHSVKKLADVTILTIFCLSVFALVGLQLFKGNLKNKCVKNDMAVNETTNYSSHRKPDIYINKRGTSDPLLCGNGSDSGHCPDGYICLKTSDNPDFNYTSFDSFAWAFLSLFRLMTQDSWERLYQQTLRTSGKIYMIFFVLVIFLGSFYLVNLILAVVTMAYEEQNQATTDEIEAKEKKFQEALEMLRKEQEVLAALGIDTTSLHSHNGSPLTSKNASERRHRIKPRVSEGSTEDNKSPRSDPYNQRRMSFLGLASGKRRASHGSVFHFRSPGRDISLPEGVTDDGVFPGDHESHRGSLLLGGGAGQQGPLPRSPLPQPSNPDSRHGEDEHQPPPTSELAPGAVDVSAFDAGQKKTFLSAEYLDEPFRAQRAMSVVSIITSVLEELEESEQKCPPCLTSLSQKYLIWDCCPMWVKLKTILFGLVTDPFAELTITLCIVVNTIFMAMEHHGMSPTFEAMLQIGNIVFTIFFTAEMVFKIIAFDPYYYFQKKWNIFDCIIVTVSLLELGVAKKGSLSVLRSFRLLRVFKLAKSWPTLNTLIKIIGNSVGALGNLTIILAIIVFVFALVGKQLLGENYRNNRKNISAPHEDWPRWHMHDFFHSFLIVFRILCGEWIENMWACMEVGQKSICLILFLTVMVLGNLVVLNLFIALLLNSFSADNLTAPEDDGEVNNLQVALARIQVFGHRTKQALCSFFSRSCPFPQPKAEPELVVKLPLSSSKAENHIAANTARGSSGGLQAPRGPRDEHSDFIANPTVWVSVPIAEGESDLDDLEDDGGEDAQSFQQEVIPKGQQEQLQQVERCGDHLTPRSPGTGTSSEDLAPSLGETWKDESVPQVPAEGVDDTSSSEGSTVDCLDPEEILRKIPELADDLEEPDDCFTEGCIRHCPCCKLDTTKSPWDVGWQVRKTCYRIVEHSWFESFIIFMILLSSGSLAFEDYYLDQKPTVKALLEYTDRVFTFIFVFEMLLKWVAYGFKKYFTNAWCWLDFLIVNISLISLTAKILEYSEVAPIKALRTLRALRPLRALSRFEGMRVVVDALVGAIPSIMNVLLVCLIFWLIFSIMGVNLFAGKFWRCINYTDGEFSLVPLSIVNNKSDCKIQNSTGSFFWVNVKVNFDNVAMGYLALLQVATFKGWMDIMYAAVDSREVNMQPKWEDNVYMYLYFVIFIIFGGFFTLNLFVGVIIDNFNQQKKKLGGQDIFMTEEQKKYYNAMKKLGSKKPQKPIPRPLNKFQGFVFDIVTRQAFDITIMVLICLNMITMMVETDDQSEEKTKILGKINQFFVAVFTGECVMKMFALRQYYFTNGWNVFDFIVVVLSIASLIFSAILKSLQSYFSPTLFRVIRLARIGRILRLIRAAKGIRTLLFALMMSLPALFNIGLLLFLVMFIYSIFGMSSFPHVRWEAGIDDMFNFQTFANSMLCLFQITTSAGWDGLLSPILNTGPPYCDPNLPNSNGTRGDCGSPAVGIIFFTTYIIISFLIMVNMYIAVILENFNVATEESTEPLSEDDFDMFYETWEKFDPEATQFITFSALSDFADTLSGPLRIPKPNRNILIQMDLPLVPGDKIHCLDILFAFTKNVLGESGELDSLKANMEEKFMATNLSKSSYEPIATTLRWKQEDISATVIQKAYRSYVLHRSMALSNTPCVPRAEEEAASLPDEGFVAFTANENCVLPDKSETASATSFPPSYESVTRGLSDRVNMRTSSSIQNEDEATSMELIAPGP

Compound `C[C@H](NCc1nc2ccc(Oc3ccc(F)cc3)cc2n1C[C@H]1CCCO1)C(N)=O` [Example 51] has an inhibition at 12.5 µM of 90.5%.

Compound `CCOCCn1c(CNC(C)(C)C(N)=O)nc2ccc(-c3ccc(C)cc3C)cc21` [Example 160] has an inhibition at 12.5 µM of 97%.

`CCOCCn1c(CN[C@@H](C)C(N)=O)nc2cc(Cl)c(-c3ccc(F)cc3)cc21` [Example 176] was tested, and the “SNS inhibitory rate (%)” value (compound concentration 12.5 μM) was 68.8%.

`CCOCCn1c(CN[C@@H](C)C(N)=O)nc2ccc(Oc3ccccc3F)cc21` [Example 52] showed an inhibition at 12.5 µM of 89.7%.

In the case of `COCCCn1c(CN[C@@H](C)C(N)=O)nc2ccc(Oc3ccc(C)cc3)cc21` [Example 126], the inhibition at 12.5 µM is reported as 56.9%.

Work on `C[C@H](NCc1nc2ccc(Oc3ccccc3)cc2n1C1CCC1)C(N)=O` [Example 11] yielded an inhibition at 12.5 µM of 63%.

`CCOCCn1c(CN[C@@H](C)C(N)=O)nc2ccc(Oc3ccc(F)cc3F)cc21` [Example 49] gave an inhibition at 12.5 µM of 94.8%.

For `C[C@H](NCc1nc2ccc(Oc3ccccc3)cc2n1CC1CCOCC1)C(N)=O` [Example 13], the inhibition at 12.5 µM was 29.8%.

Compound `CCOCCn1c(CN[C@@H](C)C(N)=O)nc2ccc(-c3cccc(F)c3F)cc21` [Example 171] has an inhibition at 12.5 µM of 38.3%.

In the case of `C[C@H](NCc1nc2ccc(Oc3ccc(F)cc3)cc2n1CCO)C(N)=O` [Example 117, N^2-{[6-(4-fluorophenoxy)-1-(2-hydroxyethyl)-1H-benzimidazol-2-yl]methyl}-L-alaninamide], the inhibition at 12.5 µM is reported as 78.8%.

For `CCOCCn1c(CN[C@@H](C)C(N)=O)nc2ccc(Oc3ccc(C#N)cc3)cc21` [Example 45], the inhibition at 12.5 µM was 40.6%.

Compound `CCOCCn1c(CN[C@@H](C)C(=O)NCCOC)nc2ccc(Oc3ccc(F)cc3)cc21` [Example 88] has an inhibition at 12.5 µM of 83.5%.

In the case of `CCOCCn1c(CN[C@@H](C)C(N)=O)nc2cc(Cl)c(-c3ccccc3)cc21` [Example 177], the inhibition at 12.5 µM is reported as 22.5%.

With `CCOCCn1c(CN[C@@H](C)C(N)=O)nc2ccc(Oc3ccc(C(F)(F)F)cc3)cc21` [Example 46] the inhibition at 12.5 µM was 95.5%.

`CCOCCn1c(CN[C@@H](C)C(N)=O)nc2cc(Cl)c(-c3ccc(C)cc3)cc21` [Example 178] was tested, and the inhibition at 12.5 µM was 16%.

`C[C@H](NCc1nc2ccc(Oc3ccc(F)cc3)cc2n1C1CCC1)C(N)=O` [Example 17] showed an inhibition at 12.5 µM of 89.3%.

In the case of `CCn1c(CN[C@@H](C)C(N)=O)nc2ccc(-c3ccc(F)cc3)cc21` [Example 110, N^2-{[1-ethyl-6-(4-fluorophenyl)-1H-benzimidazol-2-yl]methyl}-L-alaninamide], the inhibition at 12.5 µM is reported as 9.8%.

With `CCn1c(CNC(C)(C)C(N)=O)nc2ccc(Oc3ccc(F)cc3)cc21` [Example 138] the inhibition at 12.5 µM was 93.1%.

With `CCOCCn1c(CN[C@@H](C)C(N)=O)nc2ccc(-c3ccccc3)cc21` [Example 69] the inhibition at 12.5 µM was 22.3%.

Compound `CCOCCn1c(CN[C@@H](C)C(N)=O)nc2c(F)cc(-c3ccc(F)cc3)cc21` [Example 114, N^2-{[1-(2-ethoxyethyl)-4-fluoro-6-(4-fluorophenyl)-1H-benzimidazol-2-yl]methyl}-L-alaninamide] has an inhibition at 12.5 µM of 6.5%.

For `CCOCCn1c(CN[C@@H](C)C(N)=O)nc2ccc(-c3ccc(Cl)cc3)cc21` [Example 73], the inhibition at 12.5 µM was 8%.

For `CCn1c(CN[C@@H](C)C(N)=O)nc2ccc(Oc3ccc(C)cc3)cc21` [Example 96], the inhibition at 12.5 µM was 84.8%.

`CC(C)n1c(CNCC(N)=O)nc2ccc(Oc3ccccc3)cc21` [Example 10] gave an inhibition at 12.5 µM of 16.3%.

Compound `CCOCCn1c(CN[C@H](C(N)=O)C(C)C)nc2ccc(Oc3ccc(F)cc3)cc21` [Example 4, N^2-{[1-(2-ethoxyethyl)-6-(4-fluorophenoxy)-1H-benzimidazol-2-yl]methyl}-L-valinamide] has an inhibition at 12.5 µM of 66.8%.

`COCCCn1c(CNCC(N)=O)nc2ccc(Oc3ccccc3)cc21` [Example 23] gave an inhibition at 12.5 µM of 0.8%.

Work on `CCOCCn1c(CN[C@@H](CC)C(N)=O)nc2ccc(Oc3ccccc3)cc21` [Example 37] yielded an inhibition at 12.5 µM of 42.3%.

With `CCOCCn1c(CN[C@@H](C)C(N)=O)nc2cc(Cl)c(-c3ccc(F)cc3F)cc21` [Example 179] the inhibition at 12.5 µM was 67.4%.

For `CCOCCn1c(CN[C@@H](C)C(N)=O)nc2ccc(Oc3ccc(F)cc3Cl)cc21` [Example 93], the inhibition at 12.5 µM was 82.1%.

Compound `CCOCCn1c(CNC(C)(C)C(N)=O)nc2ccc(Oc3cccc(Cl)c3)cc21` [Example 30] has an inhibition at 12.5 µM of 31.5%.

In the case of `CCOCCn1c(CN[C@@H](C)C(N)=O)nc2ccc(Oc3ccccc3)nc21` [Example 79, N^2-{[3-(2-ethoxyethyl)-5-phenoxy-3H-imidazo[4,5-b]pyridin-2-yl]methyl}-L-alaninamide], the inhibition at 12.5 µM is reported as 3.5%.

For `CCOCCn1c(CN[C@@H](C)C(N)=O)nc2ccc(-c3ccc(F)c(OC)c3)cc21` [Example 173], the inhibition at 12.5 µM was 27.1%.

Compound `C[C@H](NCc1nc2ccc(Oc3ccc(OC(F)(F)F)cc3)cc2n1CCCO)C(N)=O` [Example 133] has an inhibition at 12.5 µM of 91.7%.

`CC(C)(NCc1nc2ccc(Oc3ccccc3)cc2n1C[C@@H]1CCCO1)C(N)=O` [Example 35] was tested, and the inhibition at 12.5 µM was 10.8%.

`CCOCCn1c(CN[C@@H](C)C(N)=O)nc2cc(-c3ccc(Cl)cc3)ccc21` [Example 191, N^2-{[5-(4-chlorophenyl)-1-(2-ethoxyethyl)-1H-benzimidazol-2-yl]methyl}-L-alaninamide hydrochloride] gave an inhibition at 12.5 µM of 23.3%.

For `CCOCCn1c(CN[C@@H](C)C(N)=O)nc2ccc(-c3ccc(F)c(C)c3)cc21` [Example 167], the inhibition at 12.5 µM was 82.8%.

`CCOCCn1c(CN[C@@H](C)C(N)=O)nc2ccc(Oc3ccccc3)cc21` [Example 1, N^2-{[1-(2-ethoxyethyl)-6-phenoxy-1H-benzimidazol-2-yl]methyl}-L-alaninamide] gave an inhibition at 12.5 µM of 45.8%.

For `CCOCCn1c(CN[C@@H](C)C(N)=O)nc2ccc(-c3ccc(C)cc3C)cc21` [Example 159], the inhibition at 12.5 µM was 96.1%.

With `CCOCCn1c(CN[C@@H](C)C(N)=O)nc2ccc(Oc3cccc(F)c3F)cc21` [Example 58] the inhibition at 12.5 µM was 71.2%.

`CCOCCn1c(CNCC(N)=O)nc2ccc(-c3ccc(Cl)cc3)cc21` [Example 72] showed an inhibition at 12.5 µM of 7.3%.

Compound `C[C@H](NCc1nc2ccc(Oc3ccc(F)cc3)cc2n1C1CCN(C(=O)OC(C)(C)C)CC1)C(N)=O` [Example 82, tert-butyl 4-[2-({[(2S)-1-amino-1-oxopropan-2-yl]amino}methyl)-6-(4-fluorophenoxy)-1H-benzimidazol-1-yl]piperidine-1-carboxylate] has an inhibition at 12.5 µM of 30.7%.

For `C[C@H](NCc1nc2ccc(Oc3ccc(F)cc3F)cc2n1CC(C)(C)O)C(N)=O` [Example 105], the inhibition at 12.5 µM was 75.1%.

Work on `CCn1c(CNC(C)(C)C(N)=O)nc2ccc(Oc3ccc(C)cc3)cc21` [Example 135] yielded an inhibition at 12.5 µM of 57.8%.

Work on `NC(=O)CNCc1nc2ccc(Oc3ccccc3)cc2n1C1CCC1` [Example 12] yielded an inhibition at 12.5 µM of 17%.

Work on `CCOCCn1c(CN[C@@H](C)C(N)=O)nc2ccc(-c3ccc(F)cc3OC)cc21` [Example 172] yielded an inhibition at 12.5 µM of 50.9%.

`CCOCCn1c(CNC(C)(C)C(N)=O)nc2ccc(-c3ccc(F)c(OC)c3)cc21` [Example 175] showed an inhibition at 12.5 µM of 5.9%.

`C[C@H](NCc1nc2ccc(Oc3ccc(OC(F)(F)F)cc3)cc2n1C1CC1)C(N)=O` [Example 100] gave an inhibition at 12.5 µM of 72.1%.

`C[C@H](NCc1nc2ccc(Oc3ccc(F)cc3F)cc2n1C[C@@H]1CCCO1)C(N)=O` [Example 121] gave an inhibition at 12.5 µM of 94.3%.

Work on `COCCn1c(CN[C@@H](C)C(N)=O)nc2ccc(Oc3ccc(F)cc3)cc21` [Example 60] yielded an inhibition at 12.5 µM of 75.7%.

For `CC(C)(NCc1nc2ccc(Oc3ccc(F)cc3F)cc2n1C[C@@H]1CCCO1)C(N)=O` [Example 137], the inhibition at 12.5 µM was 90.7%.

In the case of `CCOCCn1c(CN[C@@H](C)C(N)=O)nc2ccc(-c3cccc(C)c3)cc21` [Example 152], the inhibition at 12.5 µM is reported as 8.9%.

Compound `C[C@H](NCc1nc2ccc(Oc3ccc(F)c(F)c3)cc2n1C[C@H]1CCCO1)C(N)=O` [Example 124] has an inhibition at 12.5 µM of 87.8%.

`CCOCCn1c(CN[C@@H](C)C(N)=O)nc2ccc(-c3ccccc3C)cc21` [Example 153] showed an inhibition at 12.5 µM of 28.5%.

With `CCOCCn1c(CN[C@@H](C)C(N)=O)nc2ccc(-c3ccc(C)cc3F)cc21` [Example 165] the inhibition at 12.5 µM was 100%.

Compound `CC(C)(NCc1nc2ccc(Oc3ccc(F)cc3)cc2n1C1CC1)C(N)=O` [Example 136] has an inhibition at 12.5 µM of 28.7%.

Compound `CCOCCn1c(CN[C@@H](CC)C(N)=O)nc2ccc(-c3ccc(C)c(C)c3)cc21` [Example 163] has an inhibition at 12.5 µM of 36.5%.

Work on `CCOCCn1c(CNCC(N)=O)nc2ccc(-c3ccccc3Cl)cc21` [Example 70] yielded an inhibition at 12.5 µM of 11.2%.

For `CCOCCn1c(CN[C@@H](C)C(N)=O)nc2ccc(Oc3ccc4c(c3)CCC4)cc21` [Example 95], the inhibition at 12.5 µM was 26.8%.

For `CCOCCn1c(CN[C@@H](C)C(N)=O)nc2ccc(Oc3ccc(C(C)(C)C)cc3)cc21` [Example 74, N^2-{[6-(4-tert-butylphenoxy)-1-(2-ethoxyethyl)-1H-benzimidazol-2-yl]methyl}-L-alaninamide], the inhibition at 12.5 µM was 58.2%.

`C[C@H](NCc1nc2ccc(Oc3ccc(F)cc3)cc2n1C1CCN(S(C)(=O)=O)CC1)C(N)=O` [Example 86, N^2-({6-(4-fluorophenoxy)-1-[1-(methylsulfonyl)piperidin-4-yl]-1H-benzimidazol-2-yl}methyl)-L-alaninamide] gave an inhibition at 12.5 µM of 8.3%.

`CC(C)(NCc1nc2ccc(Oc3ccc(F)cc3)cc2n1C1CCOCC1)C(N)=O` [Example 8] showed an inhibition at 12.5 µM of 90.4%.

Work on `CCOCCn1c(CN[C@@H](C)C(N)=O)nc2ccc(-c3ccccc3Cl)cc21` [Example 71] yielded an inhibition at 12.5 µM of 73.7%.

`CC(C)(NCc1nc2ccc(Oc3ccc(F)cc3)cc2n1CCO)C(N)=O` [Example 143] gave an inhibition at 12.5 µM of 27.7%.

Work on `Cc1ccc(Oc2ccc3nc(CN[C@@H](C)C(N)=O)n(C[C@@H]4CCCO4)c3c2)cc1` [Example 119] yielded an inhibition at 12.5 µM of 87.2%.

`CCOCCn1c(CN[C@@H](C)C(N)=O)nc2ccc(Oc3cc(F)c(F)cc3F)cc21` [Example 55] showed an inhibition at 12.5 µM of 89.4%.

`CCOCCn1c(CN[C@@H](C)C(N)=O)nc2ccc(Oc3ccc(OC(F)(F)F)cc3)cc21` [Example 43] showed an inhibition at 12.5 µM of 61%.

Work on `CCOCCn1c(CN[C@@H](C)C(N)=O)nc2ccc(Oc3ccc(C(C)C)cc3)cc21` [Example 94] yielded an inhibition at 12.5 µM of 63.9%.

Compound `CCOCCn1c(CN[C@@H](C)C(N)=O)nc2ccc(-c3ccc(OC(F)(F)F)cc3)cc21` [Example 145] has an inhibition at 12.5 µM of 1.3%.
